Common to all, as to assay type: cell-based
The target of experiment [1] is T1, 17β-hydroxysteroid dehydrogenase type 2 (17β-HSD type 2) (Homo sapiens, UniProt P37059).
T1 construct: expressed in transfected cells; host or cells: MCF-7
T1 sequence (P37059 1-387): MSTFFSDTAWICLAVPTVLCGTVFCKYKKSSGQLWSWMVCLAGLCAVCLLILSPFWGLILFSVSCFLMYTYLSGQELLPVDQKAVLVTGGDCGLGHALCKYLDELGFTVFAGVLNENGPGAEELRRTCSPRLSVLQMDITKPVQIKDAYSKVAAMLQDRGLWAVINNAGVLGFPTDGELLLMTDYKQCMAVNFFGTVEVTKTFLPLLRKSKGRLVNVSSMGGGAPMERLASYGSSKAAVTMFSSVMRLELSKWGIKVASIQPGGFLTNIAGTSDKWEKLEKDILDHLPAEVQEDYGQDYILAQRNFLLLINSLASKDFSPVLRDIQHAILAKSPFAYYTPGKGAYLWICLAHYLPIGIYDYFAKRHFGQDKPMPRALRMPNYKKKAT
As to the kind of experiment: Inhibition of 17β-HSD type 2 in MCF-7 cells stably expressing the isoenzyme (tritium labeled estradiol conversion, HPLC). Particulars: MCF-7 cells expressing 17β-HSD type 2, 2 nM tritium labeled estradiol; for inhibition at 1 µM / inhibition at 10 µM: MCF7; for inhibition at 1 µM / % Inhibition HSD2 1 μM: 1 μM test compound; for inhibition at 1 µM: read-out: % Inhibition HSD2 1 μM; for inhibition at 10 µM / % Inhibition HSD2 10 μM: 10 μM test compound; for inhibition at 10 µM: read-out: % Inhibition HSD2 10 μM. Summed up:
(§1)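 Percent inhibition derived by comparing substrate conversion with versus without compound, quantified by HPLC–radioflow detection after TCA stop. Cells were stably transfected MCF-7 expressing type 1, 2 or 3 enzyme, given 2 nM labeled estrone, estradiol or androstenedione respectively; compounds tested at two concentrations.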

In experiment [2] the target is T2, 17β-hydroxysteroid dehydrogenase type 1 (17β-HSD type 1) (Homo sapiens, UniProt P14061).
T2 construct: expressed in transfected cells; host or cells: MCF-7
T2 sequence (P14061 1-328): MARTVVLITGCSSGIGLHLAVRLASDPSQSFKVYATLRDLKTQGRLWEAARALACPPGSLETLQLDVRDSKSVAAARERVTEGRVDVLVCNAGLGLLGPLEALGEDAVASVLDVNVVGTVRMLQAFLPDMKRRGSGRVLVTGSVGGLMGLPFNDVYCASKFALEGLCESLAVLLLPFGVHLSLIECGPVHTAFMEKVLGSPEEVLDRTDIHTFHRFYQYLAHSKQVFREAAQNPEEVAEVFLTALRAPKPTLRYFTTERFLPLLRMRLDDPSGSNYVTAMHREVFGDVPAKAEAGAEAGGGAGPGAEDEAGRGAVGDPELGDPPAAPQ
Description: Inhibition of 17β-HSD type 1 in MCF-7 cells stably expressing the isoenzyme (tritium labeled estrone conversion, HPLC). The settings on record: MCF-7 cells expressing 17β-HSD type 1, 2 nM tritium labeled estrone; for inhibition at 1 µM / inhibition at 10 µM: MCF7; for inhibition at 1 µM / % Inhibition HSD1 1 μM: 1 μM test compound; for inhibition at 1 µM: read-out: % Inhibition HSD1 1 μM; for inhibition at 10 µM / % Inhibition HSD1 10 μM: 10 μM test compound; for inhibition at 10 µM: read-out: % Inhibition HSD1 10 μM. In outline: as §1

Experiment [3] concerns the target T3, 17β-hydroxysteroid dehydrogenase type 3 (17β-HSD type 3) (Homo sapiens, UniProt P37058).
T3 construct: expressed in transfected cells; host or cells: MCF-7
T3 sequence (P37058 1-310): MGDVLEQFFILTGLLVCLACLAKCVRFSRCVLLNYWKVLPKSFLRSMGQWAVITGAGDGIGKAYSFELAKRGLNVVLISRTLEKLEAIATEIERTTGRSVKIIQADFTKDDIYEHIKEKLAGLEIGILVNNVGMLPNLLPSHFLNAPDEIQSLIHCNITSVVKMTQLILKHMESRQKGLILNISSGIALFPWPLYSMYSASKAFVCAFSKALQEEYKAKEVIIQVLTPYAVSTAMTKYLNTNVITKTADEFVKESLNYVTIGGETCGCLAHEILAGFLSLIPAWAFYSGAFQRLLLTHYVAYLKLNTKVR
Description: Inhibition of 17β-HSD type 3 in MCF-7 cells stably expressing the isoenzyme (tritium labeled androstenedione conversion, HPLC). Particulars: MCF-7 cells expressing 17β-HSD type 3, 2 nM tritium labeled androstenedione; for inhibition at 1 µM / inhibition at 10 µM: MCF7; for inhibition at 1 µM / % Inhibition HSD3 1 μM: 1 μM test compound; for inhibition at 1 µM: read-out: % Inhibition HSD3 1 μM; for inhibition at 10 µM / % Inhibition HSD3 10 μM: 10 μM test compound; for inhibition at 10 µM: read-out: % Inhibition HSD3 10 μM. In outline:
as §1

`COc1cc(-c2nc3sc4c(c3c(=O)n2Cc2ccccc2)CCC(Br)C4=O)c(Br)c(OC)c1OC` (stereo not drawn) [No. 47, 3-benzyl-7-bromo-2-(2-bromo-3,4,5-trimethoxyphenyl)-6,7-dihydro-3H,5H-benzo[4,5]thieno[2,3-d]pyrimidine-4,8-dione]: the inhibition at 1 µM in experiment [1] worked out at 31.9%; in experiment [2] it was 16.1%; in experiment [3] it was 39.7%. The inhibition at 10 µM in experiment [1] is 59%; in experiment [2], 63.2%; in experiment [3], 52.2%.
Consider `CC(=O)OCc1nc2sc3c(c2c(=O)n1-c1ccccc1)CCCC3` [No. 39, Acetic acid 4-oxo-3-phenyl-3,4,5,6,7,8-hexahydro-benzo[4,5]thieno[2,3-d]pyrimidin-2-ylmethyl ester], for which the results for the inhibition at 1 µM in experiment [1], in experiment [2] and in experiment [3] were 25%, 21.1% and 18.5%, respectively. Further, the figures for the inhibition at 10 µM in experiment [1], in experiment [2] and in experiment [3] were 9.5%, 13.2% and 12.8%, respectively.
Regarding `COc1cc(-c2nc3sc4c(OC)cccc4c3c(=O)n2Cc2ccccc2)cc(OC)c1OC` [No. 138, 3-Benzyl-8-methoxy-2-(3,4,5-trimethoxyphenyl)-3H-benzo[4,5]thieno[2,3-d]pyrimidin-4-one], the inhibition at 1 µM in experiment [1] amounted to 25.7%; in experiment [2], 20.6%; in experiment [3], 6.8%. Moreover, the inhibition at 10 µM in experiment [1] turned out to be 24.8%; in experiment [2] it was 21.5%; in experiment [3] it was 23%.
In the case of `CCCCC(CC)c1nc2sc3c(O)cccc3c2c(=O)n1CCc1ccccc1` (stereo not drawn) [No. 628], in experiment [1], the “% Inhibition HSD2 1 μM” value is recorded as −0.9% and the “% Inhibition HSD2 10 μM” value came out at 22.5%. In addition, in experiment [2], the “% Inhibition HSD1 1 μM” value is given as 11.4% and the “% Inhibition HSD1 10 μM” value is reported as 32.4%. Also, in experiment [3], the “% Inhibition HSD3 1 μM” value stood at 12.4% and the “% Inhibition HSD3 10 μM” value is given as 36.1%.
Turning to `O=C1CCCc2c1sc1nc(-c3ccccc3)n(Cc3ccccc3)c(=O)c21` [No. 57, 3-Benzyl-2-phenyl-6,7-dihydro-3H,5H-benzo[4,5]thieno[2,3-d]pyrimidine-4,8-dione], the inhibition at 1 µM in experiment [1] was 17.5%; in experiment [2], 23%; in experiment [3], 19.7%. Further, the inhibition at 10 µM in experiment [1] worked out at 28.5%; in experiment [2] it was 47.3%; in experiment [3], 57.3%.
As to `COCCn1c(-c2cccs2)nc2sc3c(c2c1=O)CCCC3` [No. 74, 3-(2-Methoxyethyl)-2-thiophen-2-yl-5,6,7,8-tetrahydro-3H-benzo[4,5]thieno[2,3-d]pyrimidin-4-one], the inhibition at 1 µM in experiment [1] was determined as 33.2%; in experiment [2], 11.7%; in experiment [3] it was 8.3%. For the same compound, the inhibition at 10 µM in experiment [1] was found to be 26.1%; in experiment [2], 12.2%; in experiment [3], 8.3%.
Consider `CC(=O)Oc1c(Br)ccc2c1sc1nc(-c3ccccc3)n(Cc3ccccc3)c(=O)c12` [No. 93, Acetic acid 3-benzyl-7-bromo-4-oxo-2-phenyl-3,4-dihydro-benzo[4,5]thieno[2,3-d]pyrimidin-8-yl ester], for which the inhibition at 1 µM in experiment [1] was determined as 43.2%; in experiment [2], 13.3%; in experiment [3] it was 19.4%. Further, the inhibition at 10 µM in experiment [1] came to 57.7%; in experiment [2], 11.7%; in experiment [3], 26.1%.
Take `COc1ccc(-c2nc3sc4c(c3c(=O)n2Cc2ccccc2)CCCC4=O)cc1` [No. 13, 3-Benzyl-2-(p-methoxyphenyl)-6,7-dihydro-3H,5H-benzo[4,5]thieno[2,3-d]pyrimidine-4,8-dione]: the inhibition at 1 µM in experiment [1] came out at 19.5%; in experiment [2], 28%; in experiment [3], 3%. Also, the inhibition at 10 µM was found to be 19.9% in experiment [1], 43.6% in experiment [2] and 59.1% in experiment [3].
Consider `CCCCn1c(-c2cc(OC)c(OC)c(OC)c2Br)nc2sc3c(c2c1=O)CC(C)C(Br)C3=O` (stereo not drawn) [No. 693, 3-Butyl-7-bromo-6-methyl-2-(2-bromo-3,4,5-trimethoxyphenyl)-6,7-dihydro-3H-benzo[4,5]thieno[2,3-d]pyrimidin-4,8-dione], for which the inhibition at 1 µM in experiment [1] turned out to be 18.1%; in experiment [2], 15%; in experiment [3], 5.2%. The inhibition at 10 µM in experiment [1] amounted to 18.2%; in experiment [2], 5.7%; in experiment [3], 16.8%.
Take `O=c1c2c(nc(CCc3ccccc3)n1CCc1cccs1)sc1c(O)cccc12` [No. 639]: in experiment [1], the “% Inhibition HSD2 1 μM” value came to 18.2% and the “% Inhibition HSD2 10 μM” value is recorded as 24.0%. In experiment [2], the “% Inhibition HSD1 1 μM” value amounted to 22.6% and the “% Inhibition HSD1 10 μM” value is reported as 39.3%. In experiment [3], the “% Inhibition HSD3 1 μM” value is listed as 33.6% and the “% Inhibition HSD3 10 μM” value was 76.2%.
Take `CCCCn1c(-c2cc(OC)c(OC)c(OC)c2)nc2sc3c(c2c1=O)CCCC3=O` [No. 86, 3-Butyl-2-(3,4,5-trimethoxyphenyl)-6,7-dihydro-3H,5H-benzo[4,5]thieno[2,3-d]pyrimidine-4,8-dione]: the figures for the inhibition at 1 µM in experiment [1], in experiment [2] and in experiment [3] were 18.9%, 23.6% and 11.3%, respectively. Moreover, the values for the inhibition at 10 µM in experiment [1], in experiment [2] and in experiment [3] were 19.5%, 46.6% and 45.7%, respectively.
In the case of `CCSC1=C(C=O)CCc2c1sc1nc(-c3ccc(OC)cc3)n(Cc3ccccc3)c(=O)c21` [No. 16, 3-Benzyl-8-ethylsulfanyl-2-(p-methoxyphenyl)-4-oxo-3,4,5,6-tetrahydro-benzo[4,5]thieno[2,3-d]pyrimidine-7-carbaldehyde], the inhibition at 1 µM turned out to be 5% in experiment [1], 1.7% in experiment [2] and 75.7% in experiment [3]. The figures for the inhibition at 10 µM in experiment [1], in experiment [2] and in experiment [3] were 20.1%, 33.5% and 100%, respectively.
Regarding `COCCn1c(-c2cccs2)nc2sc3c(c2c1=O)CCC(Br)C3=O` (stereo not drawn) [No. 76, 7-Bromo-3-(2-methoxyethyl)-2-thiophen-2-yl-6,7-dihydro-3H,5H-benzo[4,5]thieno[2,3-d]pyrimidine-4,8-dione], the figures for the inhibition at 1 µM in experiment [1], in experiment [2] and in experiment [3] were 44.6%, 35.8% and 47.1%, respectively. Also, the inhibition at 10 µM in experiment [1] came to 43.4%; in experiment [2] it was 44.1%; in experiment [3] it was 81.4%.
In the case of `COc1cc(-c2nc3sc4c(c3c(=O)n2Cc2ccccc2)CC(C)CC4)cc(OC)c1OC` (stereo not drawn) [No. 687, 3-Benzyl-6-methyl-2-(3,4,5-trimethoxyphenyl)-5,6,7,8-tetrahydro-3H-benzo[4,5]thieno[2,3-d]pyrimidin-4-one], the figures for the inhibition at 1 µM in experiment [1], in experiment [2] and in experiment [3] were 8.3%, -3.3% and 1.7%, respectively. Moreover, the inhibition at 10 µM in experiment [1] came out at 5.6%; in experiment [2], 5.5%; in experiment [3] it was 7.3%.

What is called inhibition is the drop in the measured response relative to a control, in per cent.

These data come from patent US7524853B2 (Solvay Pharmaceuticals B.V., priority 2003, dated 2009).
